# Experimental data as given in article PMC1253752, “Binding of Estrogenic Compounds to Recombinant Estrogen Receptor-α: Application to Environmental Analysis” (Environmental Health Perspectives, 2004).
# Read-outs that look alike come from different tables or passages of the source.
# Experiments:
# [1] = target: T1, ER-α (Homo sapiens, UniProt P03372); experiment: MELN cell luciferase assay (estrogen-responsive reporter in MCF-7 cells); assay type: cell-based
# T1 construct: we transfected ER-α–positive breast cancer MCF-7 cells; endogenous in cells; host or cells: MELN (MCF-7 stably transfected with ERE-βGlob-Luc-SVNeo)
# T1 sequence (P03372 1-595): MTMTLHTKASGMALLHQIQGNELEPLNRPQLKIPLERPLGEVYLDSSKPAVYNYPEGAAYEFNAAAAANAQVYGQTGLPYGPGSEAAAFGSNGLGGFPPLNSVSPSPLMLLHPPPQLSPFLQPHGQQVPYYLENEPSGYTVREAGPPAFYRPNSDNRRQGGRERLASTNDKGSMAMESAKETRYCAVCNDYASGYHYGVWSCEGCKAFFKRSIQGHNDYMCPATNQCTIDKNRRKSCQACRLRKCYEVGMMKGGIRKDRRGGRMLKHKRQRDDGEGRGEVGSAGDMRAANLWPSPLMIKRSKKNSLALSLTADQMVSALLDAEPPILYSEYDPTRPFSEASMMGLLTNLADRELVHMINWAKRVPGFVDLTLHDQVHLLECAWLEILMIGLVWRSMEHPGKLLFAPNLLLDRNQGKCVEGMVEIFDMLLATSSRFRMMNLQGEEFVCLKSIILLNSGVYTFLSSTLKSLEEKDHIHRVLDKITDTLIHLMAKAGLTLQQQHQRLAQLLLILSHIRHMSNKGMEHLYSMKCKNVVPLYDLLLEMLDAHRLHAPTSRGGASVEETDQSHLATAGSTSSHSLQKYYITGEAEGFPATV
# Procedure: Selection of resistant clones by geneticin was performed at 1 mg/mL.
# (§1) For strain cultures, cells were grown in phenol red containing Dulbecco’s modified Eagle medium, 1 g/L glucose, supplemented with 5% fetal calf serum (FCS), and 1% antibiotic (penicillin/streptomycin) in a 5% CO2 humidified atmosphere at 37°C.
# Cells were seeded at a density of 5 × 10^4 cells/well in 96-well white opaque tissue culture plates (Becton Dickinson, Le Pont de Claix, France) in 150 μL test culture medium. Compounds to be tested were prepared 4× concentrated in the same medium and 50 μL was added per well 8 hr after seeding. Cells were incubated with compounds for 16 hr. Experiments were performed in quadruplicate and repeated twice. At the end of incubation, effector containing medium was removed and replaced by […], luciferin diffuses into the cell and produces a luminescent signal that is stable from 5 min on. […] The 96-well plate was then introduced in a microplate luminometer (Centro LB 960, Berthold Technologies), and intact living cell luminescence measured for 2 sec. Results are expressed as a percentage of maximum luciferase activity. […] GraphPad Software Inc., San Diego, CA, USA). […]
# [2] = target: T2, recombinant ER-α (hER-αLBD triple mutant) (Homo sapiens, UniProt P03372, C381S/C417S/C530S); experiment: biochemical
# T2 sequence (P03372 302-552 C381S/C417S/C530S): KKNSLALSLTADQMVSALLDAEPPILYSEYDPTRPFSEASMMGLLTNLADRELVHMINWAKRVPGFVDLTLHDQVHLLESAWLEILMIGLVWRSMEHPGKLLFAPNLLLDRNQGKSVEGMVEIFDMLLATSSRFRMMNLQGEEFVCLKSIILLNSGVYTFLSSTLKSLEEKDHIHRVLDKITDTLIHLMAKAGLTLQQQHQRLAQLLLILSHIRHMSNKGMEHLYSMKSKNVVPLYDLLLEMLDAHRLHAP
# [3] = target: T2, recombinant ER-α (hER-αLBD triple mutant); settings: for RBA: ratio of IC50 values of E2 to competitor, E2 set at 100
# [4] = target: T1, ER-α; assay type: cell-based
# Procedure: Ten nanomoles of recombinant ER-αwere immobilized on 500 μL Ni-NTA-agarose phase. […] After rolling for 16 hr, flow-through and three 500-μL washings with WB were collected. Liganded receptor was then eluted with 3 × 500 μL EB, and eluate was heated at 65°C for 30 min in order to denature recombinant ER-α. Collected fractions were diluted 10-fold in culture medium before their relative estrogenic activity was evaluated with MELN reporter cells.
# Flow-through (1.5 mL), washing, and elution fractions (500 μL) were collected. Precolumn and flow-through fractions were diluted 10-fold in culture medium before their relative activities were evaluated with MELN and HAhLP reporter cells. Washing and elution fractions were diluted 30-fold in culture medium to take into account the fact that they were 3× concentrated.
# [5] = target: T3, recombinant ER-α (Homo sapiens, UniProt P03372, C381S/C417S/C530S); assay type: cell-based; settings: compound at concentration giving about 80% MELN transactivation, 1-100 nM recombinant ER-α
# T3 construct: hER-αLBD(Lys302 → Pro552); made in house; host or cells: Escherichia coli BL21 DE3
# T3 sequence (P03372 302-552 C381S/C417S/C530S): T2 sequence (P03372 302-552 C381S/C417S/C530S)
# Procedure: MELN cells were seeded in 96-well white opaque tissue culture plates as described above. In separate tubes, estrogenic compounds at nonsaturating concentration mediating about 80% MELN cell activity or 0.1% methanol extract for environmental samples, were prepared 4×-concentrated and preincubated with the same volume of 4×-concentrated purified recombinant ER-α(1–100 nM final concentration) in test culture medium at 4°C for 16 hr. Medium from MELN cell culture plates was then removed and replaced by 100 μL of test culture medium supplemented with the same volume of preincubation medium. After 6 hr incubation at 37°C, luciferase activity was determined.
# [6] = target: T4, AhR (Homo sapiens, UniProt P35869); experiment: HAhLP cell luciferase assay (CYP1A1-Luc reporter in HeLa cells); assay type: cell-based; settings: read-out: EC50 value, induction of luciferase expression
# T4 construct: The dioxin reporter cell line was obtained by transfecting HeLa cells with CYP1A1-Luc and pSG5-puro plasmids; endogenous in cells; host or cells: HAhLP (HeLa stably transfected with CYP1A1-Luc and pSG5-puro)
# T4 sequence (P35869 11-848): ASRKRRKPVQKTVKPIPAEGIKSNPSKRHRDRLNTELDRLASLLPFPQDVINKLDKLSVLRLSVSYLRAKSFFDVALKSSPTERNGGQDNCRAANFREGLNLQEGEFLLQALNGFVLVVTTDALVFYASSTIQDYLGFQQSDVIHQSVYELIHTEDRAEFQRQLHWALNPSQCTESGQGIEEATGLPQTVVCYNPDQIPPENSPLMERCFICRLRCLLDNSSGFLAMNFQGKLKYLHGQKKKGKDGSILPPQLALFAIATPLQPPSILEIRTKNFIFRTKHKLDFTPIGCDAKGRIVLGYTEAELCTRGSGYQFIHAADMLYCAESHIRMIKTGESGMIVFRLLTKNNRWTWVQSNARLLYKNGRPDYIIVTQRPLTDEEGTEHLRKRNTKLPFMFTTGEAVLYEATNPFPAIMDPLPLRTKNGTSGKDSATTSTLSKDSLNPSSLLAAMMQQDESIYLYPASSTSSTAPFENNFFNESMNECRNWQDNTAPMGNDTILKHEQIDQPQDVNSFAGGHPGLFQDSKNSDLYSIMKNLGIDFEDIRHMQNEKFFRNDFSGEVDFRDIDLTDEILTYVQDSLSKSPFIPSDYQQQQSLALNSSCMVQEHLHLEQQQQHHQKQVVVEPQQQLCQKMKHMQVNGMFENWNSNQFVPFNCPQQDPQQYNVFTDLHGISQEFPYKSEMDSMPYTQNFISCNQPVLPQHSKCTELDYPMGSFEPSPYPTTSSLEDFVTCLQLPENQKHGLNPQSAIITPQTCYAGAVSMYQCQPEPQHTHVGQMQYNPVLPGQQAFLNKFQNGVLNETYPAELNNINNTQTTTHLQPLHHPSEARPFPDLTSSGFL
# Procedure: The dioxin reporter cell line was obtained by transfecting HeLa cells with CYP1A1-Luc and pSG5-puro plasmids. Selection of resistant clones by puromycin was performed at 0.5 μg/mL. The most dioxin-responsive clone was denominated HAhLP 1.15. […].
# as §1
# Cells were seeded at a density of 5 × 10^4 cells/well in 96-well white opaque tissue culture plates (Becton Dickinson, Le Pont de Claix, France) in 150 μL test culture medium. Compounds to be tested were prepared 4× concentrated in the same medium and 50 μL was added per well 8 hr after seeding. Cells were incubated with compounds for 16 hr. Experiments were performed in quadruplicate and repeated twice. […] The 96-well plate was then introduced in a microplate luminometer (Centro LB 960, Berthold Technologies), and intact living cell luminescence measured for 2 sec. Results are expressed as a percentage of maximum luciferase activity. […]
# Sediment and water methanol extracts were applied to MELN and HAhLP cells at 0.3% (vol/vol) maximal concentration in test culture medium, and luciferase transactivation was measured.
# [7] = half-maximal induction in MELN cell line, 16 hr, read-out: EC50 ± SE
# [8] = ratio of EC50 values of E2 to compound, E2 set at 100
# [9] = compound applied at 3 nM, 10 nM E2 = 100
# [10] = compound applied at 300 nM, 10 nM E2 = 100
compound,measurement,setting,value
"ClC(Cl)=C(c1ccc(Cl)cc1)c1ccccc1Cl [2,4′-DDE]",EC50,[1]; [7],2740 nM
same,RTP,[1]; [8],0.00063
"ClC(Cl)=C(c1ccc(Cl)cc1)c1ccc(Cl)cc1 [4,4′-DDE]",EC50,[1]; [7],25600 nM
same,RTP,[1]; [8],0.00007
"CCCCCCCCCc1ccc(O)cc1 [4-NP, 4n-nonylphenol]",IC50,[2],5600 nM
same,RTP,[1],0.00016
same,EC50,[1]; [7],11000 nM
same,RBA,[3],0.11
"CC(C)(c1ccc(O)cc1)c1ccc(O)cc1 [BPA, bisphenol A]","Induction of luciferase activity, Elution",[4],70 ± 2%
same,"Induction of luciferase activity, Flow-through",[4],17 ± 2%
same,"Induction of luciferase activity, Precolumn",[4],70 ± 6%
same,"Induction of luciferase activity, Washing",[4],16 ± 2%
"O=S1(=O)OC(c2ccc(O)cc2)(c2ccc(O)cc2)c2ccccc21 [Phenol red, phenol red]",RTP,[1],0.00005
same,EC50,[1]; [7],36900 nM
same,"Induction of luciferase activity, Elution",[4],40 ± 4%
same,"Induction of luciferase activity, Flow-through",[4],16 ± 2%
same,"Induction of luciferase activity, Precolumn",[4],36 ± 5%
same,"Induction of luciferase activity, Washing",[4],15 ± 3%
"C[C@H]1CCCC(=O)CCC/C=C/c2cc(O)cc(O)c2C(=O)O1 [Zearalenone, zearalenone]",capture by recombinant ER-α / inhibition of transactivation,[5],captured less efficiently than was E2
same,EC50,[1],0.313 nM
same,RTP,[1]; [8],5.62
Clc1cc2c(cc1Cl)Oc1cc(Cl)c(Cl)cc1O2 [dioxin],EC50,[6],0.2 nM
same,activation of MELN cells,[1]; MELN cells,able to partially activate MELN cells
"C[C@H]1CCC[C@H](O)CCCCCc2cc(O)cc(O)c2C(=O)O1 [α -Zearalanol, α-zearalanol]",EC50,[1]; [7],0.135 nM
same,RTP,[1]; [8],13.0
same,"Induction of luciferase activity, Elution",[4]; [9],82 ± 6%
same,"Induction of luciferase activity, Flow-through",[4]; [9],17 ± 2%
same,"Induction of luciferase activity, Precolumn",[4]; [9],88 ± 2%
same,"Induction of luciferase activity, Washing",[4]; [9],16 ± 1%
nonylphenol mixture [NPm],capture by recombinant ER-α / inhibition of transactivation,[5],only a slight or no inhibition
same,EC50,[1]; [7],339 nM
same,RTP,[1]; [8],0.0051
same,RBA,[3],0.32
same,IC50,"[3]; read-out: IC50 ± SE, 0.75 pmol recombinant ER-α, 2 nM [3H]-E2, 500 μL, 4°C 16 hr",1860 nM
same,"Induction of luciferase activity, Elution",[4]; [10],56 ± 2%
same,"Induction of luciferase activity, Flow-through",[4]; [10],17 ± 1%
same,"Induction of luciferase activity, Precolumn",[4]; [10],57 ± 4%
same,"Induction of luciferase activity, Washing",[4]; [10],16 ± 2%
